Results published in article PMC11239830, “Synthetic macrolides overcoming MLSBK-resistant pathogens” (Cell Discovery, 2024).
Values after ≈ are worked out from the molar mass of the structure shown. Where two headings read alike, the source gives them in different places.

Key:
Assay in all cases: MIC, broth microdilution
H. influenzae = assay type: cell-based, Haemophilus influenzae
Protocol: (§1) MICs were determined by the microdilution method according to the Clinical and Laboratory Standards Institute guidelines. […] Finally, the 96-well plates were incubated at 37 °C for 16–20 h to observe and record the results. […] The assay for MICs was replicated at least three times.

S. pyogenes = assay type: cell-based, Streptococcus pyogenes; conditions: S. pyogenes 12-206, c-ermTR
Protocol: as §1

S. pneumoniae = assay type: cell-based, Streptococcus pneumoniae
Protocol: as §1

S. aureus = assay type: cell-based, Staphylococcus aureus
Protocol: as §1

[1] = Haemophilus influenzae, ATCC49247, H. influenzae ATCC49247, Azi-S, read-out: MIC
[2] = Streptococcus pyogenes, read-out: MIC
[3] = Streptococcus pneumoniae, ATCC49619, S. pneumoniae ATCC49619, Ery-S, read-out: MIC
[4] = Streptococcus pneumoniae, S. pneumoniae 07P390, c-ermB, read-out: MIC
[5] = Streptococcus pneumoniae, S. pneumoniae PU09, mef, read-out: MIC
[6] = Staphylococcus aureus, S. aureus 15B196, c-ermB, read-out: MIC
[7] = Staphylococcus aureus, S. aureus PU32, i-ermA, read-out: MIC

| SMILES | MIC (H. influenzae; [1]) | MIC (S. pyogenes; [2]) | MIC (S. pneumoniae; [3]) | MIC (S. pneumoniae; [4]) | MIC (S. pneumoniae; [5]) | MIC (S. aureus; [6]) | MIC (S. aureus; [7]) | MIC (H. influenzae; H. influenzae ATCC49247, Azi-S) | MIC (S. pyogenes) | MIC (S. pneumoniae; S. pneumoniae 07P390, c-ermB) | MIC (S. pneumoniae; S. pneumoniae ATCC49619, Ery-S) | MIC (S. pneumoniae; S. pneumoniae PU09, mef) | MIC (S. aureus; S. aureus 15B196, c-ermB) | MIC (S. aureus; S. aureus PU32, i-ermA) | MIC (S. pneumoniae; Streptococcus pneumoniae, S. pneumoniae 07P390, c-ermB) | MIC (S. aureus; Staphylococcus aureus, S. aureus 15B196, c-ermB) | MIC (S. aureus; Staphylococcus aureus, S. aureus PU32, i-ermA) |
| --- | --- | --- | --- | --- | --- | --- | --- | --- | --- | --- | --- | --- | --- | --- | --- | --- | --- |
| CC[C@H]1OC(=O)[C@H](C)[C@@H](OC(=O)NCCCCCCC#Cc2ccc3c(=O)c(C(=O)O)cn(C)c3c2)[C@H](C)[C@@H](O[C@@H]2O[C@H](C)C[C@H](N(C)C)[C@H]2O)[C@](C)(OC)C[C@@H](C)NC(=O)[C@H](C)[C@@H](O)[C@]1(C)O [126g] | 4 µg/mL (≈ 4.18 µM) | 2 µg/mL (≈ 2.09 µM) | 0.06 µg/mL (≈ 0.0627 µM) | 2 µg/mL (≈ 2.09 µM) | 0.12 µg/mL (≈ 0.125 µM) | 16 µg/mL (≈ 16.7 µM) | 2 µg/mL (≈ 2.09 µM) |  |  |  |  |  |  |  |  |  |  |
| CC[C@H]1OC(=O)[C@H](C)[C@@H](OC(=O)NCCCCCCC#Cc2ccc3c(c2)c(=O)c(C(=O)O)cn3C2CC2)[C@H](C)[C@@H](O[C@@H]2O[C@H](C)C[C@H](N(C)C)[C@H]2O)[C@](C)(O)C[C@@H](C)CN(C)[C@H](C)[C@H]2OC(=O)O[C@@]21C [111a] |  |  |  |  |  |  |  | 16 µg/mL (≈ 16.1 µM) | 128 µg/mL (≈ 129 µM) | 256 µg/mL (≈ 257 µM) | 0.5 µg/mL (≈ 0.502 µM) | 2 µg/mL (≈ 2.01 µM) | 128 µg/mL (≈ 129 µM) | 32 µg/mL (≈ 32.2 µM) |  |  |  |
| CCC1OC(=O)C(C)C(OC(=O)NCCCCCCCc2ccc3c(c2)c(=O)c(C(=O)O)cn3C2CC2)C(C)C(OC2OC(C)CC(N(C)C)C2O)C(C)(OC)CC(C)C(=NOC)C(C)C2OC(=O)OC12C (stereo not drawn) [61a] | > 256 µg/mL | 32 µg/mL (≈ 31.6 µM) | 0.12 µg/mL (≈ 0.118 µM) | 64 µg/mL (≈ 63.2 µM) | 0.5 µg/mL (≈ 0.493 µM) | 256 µg/mL (≈ 253 µM) | 8 µg/mL (≈ 7.9 µM) |  |  |  |  |  |  |  |  |  |  |
| CC[C@H]1OC(=O)[C@H](C)[C@@H](OC(=O)NCCCCCCCc2ccc3c(c2)c(=O)c(C(N)=O)cn3C2CC2)[C@H](C)[C@@H](O[C@@H]2O[C@H](C)C[C@H](N(C)C)[C@H]2O)[C@](C)(OC)C[C@@H](C)C(=NOC)[C@H](C)[C@H]2OC(=O)O[C@@]21C [61b] |  |  |  |  |  |  |  | > 256 µg/mL | 16 µg/mL (≈ 15.8 µM) | 16 µg/mL (≈ 15.8 µM) | 1 µg/mL (≈ 0.988 µM) | 1 µg/mL (≈ 0.988 µM) | > 256 µg/mL | 64 µg/mL (≈ 63.2 µM) |  |  |  |
| CC[C@H]1OC(=O)[C@H](C)[C@@H](OC(=O)NCCCCCCCCCCc2ccc3c(c2)c(=O)c(C(N)=O)cn3C2CC2)[C@H](C)[C@@H](O[C@@H]2O[C@H](C)C[C@H](N(C)C)[C@H]2O)[C@](C)(OC)C[C@@H](C)C(=NOC)[C@H](C)[C@H]2OC(=O)O[C@@]21C [64b] |  |  |  |  |  |  |  | > 256 µg/mL | 16 µg/mL (≈ 15.2 µM) | 16 µg/mL (≈ 15.2 µM) | 4 µg/mL (≈ 3.79 µM) | 8 µg/mL (≈ 7.59 µM) | > 256 µg/mL | 64 µg/mL (≈ 60.7 µM) |  |  |  |
| CC[C@H]1OC(=O)[C@H](C)[C@@H](OC(=O)NCCCCCCCCCc2ccc3c(c2)c(=O)c(C(N)=O)cn3C2CC2)[C@H](C)[C@@H](O[C@@H]2O[C@H](C)C[C@H](N(C)C)[C@H]2O)[C@](C)(OC)C[C@@H](C)C(=NOC)[C@H](C)[C@H]2OC(=O)O[C@@]21C [63b] |  |  |  |  |  |  |  | > 256 µg/mL | 16 µg/mL (≈ 15.4 µM) | 16 µg/mL (≈ 15.4 µM) | 2 µg/mL (≈ 1.92 µM) | 4 µg/mL (≈ 3.85 µM) | > 256 µg/mL | 64 µg/mL (≈ 61.5 µM) |  |  |  |
| CC[C@H]1OC(=O)[C@H](C)[C@@H](O[C@H]2C[C@@](C)(OC)[C@@H](O)[C@H](C)O2)[C@H](C)[C@@H](O[C@@H]2O[C@H](C)C[C@H](N(C)C)[C@H]2O)[C@](C)(O)C[C@@H](C)CN(C)[C@H](C)[C@@H](O)[C@]1(C)O [azithromycin, reference compound] | 2 µg/mL (≈ 2.67 µM) | > 256 µg/mL | 0.25 µg/mL (≈ 0.334 µM) |  | 8 µg/mL (≈ 10.7 µM) |  |  |  |  |  |  |  |  |  | > 256 µg/mL | > 256 µg/mL | > 256 µg/mL |
| CC[C@H]1OC(=O)[C@H](C)[C@@H](OC(=O)NCCCCCCC#Cc2ccc3c(=O)c(C(=O)O)cn(C4CC4)c3c2)[C@H](C)[C@@H](O[C@@H]2O[C@H](C)C[C@H](N(C)C)[C@H]2O)[C@](C)(OC)C[C@@H](C)C(=NOC)[C@H](C)[C@H]2OC(=O)O[C@@]21C [58c] |  |  |  |  |  |  |  | 32 µg/mL (≈ 31.3 µM) | 2 µg/mL (≈ 1.95 µM) | 1 µg/mL (≈ 0.977 µM) | 0.25 µg/mL (≈ 0.244 µM) | 0.25 µg/mL (≈ 0.244 µM) | 64 µg/mL (≈ 62.5 µM) | 8 µg/mL (≈ 7.82 µM) |  |  |  |
| CC[C@H]1OC(=O)[C@H](C)[C@@H](OC(=O)NCCCCCCCCc2ccc3c(c2)c(=O)c(C(N)=O)cn3C2CC2)[C@H](C)[C@@H](O[C@@H]2O[C@H](C)C[C@H](N(C)C)[C@H]2O)[C@](C)(OC)C[C@@H](C)C(=NOC)[C@H](C)[C@H]2OC(=O)O[C@@]21C [62b] |  |  |  |  |  |  |  | > 256 µg/mL | 16 µg/mL (≈ 15.6 µM) | 32 µg/mL (≈ 31.2 µM) | 0.5 µg/mL (≈ 0.487 µM) | 4 µg/mL (≈ 3.9 µM) | > 256 µg/mL | 128 µg/mL (≈ 125 µM) |  |  |  |
| CCC1OC(=O)C(C)C(OC(=O)NCCCCCCCc2ccc3c(=O)c(C(=O)O)cn(C4CC4)c3c2)C(C)C(OC2OC(C)CC(N(C)C)C2O)C(C)(OC)CC(C)C(=NOC)C(C)C2OC(=O)OC12C (stereo not drawn) [61c] | > 256 µg/mL | 2 µg/mL (≈ 1.97 µM) | ≤ 0.008 µg/mL | 0.5 µg/mL (≈ 0.493 µM) | ≤ 0.008 µg/mL | 64 µg/mL (≈ 63.2 µM) | 8 µg/mL (≈ 7.9 µM) |  |  |  |  |  |  |  |  |  |  |
| CC[C@H]1OC(=O)[C@H](C)[C@@H](OC(=O)NCCCCCCC#Cc2ccc3cc(C(=O)O)cnc3c2)[C@H](C)[C@@H](O[C@@H]2O[C@H](C)C[C@H](N(C)C)[C@H]2O)[C@](C)(OC)C[C@@H](C)C(=O)[C@H](C)[C@H]2NC(=O)O[C@@]21C [88j] | 128 µg/mL (≈ 137 µM) | 128 µg/mL (≈ 137 µM) | 0.5 µg/mL (≈ 0.534 µM) | > 256 µg/mL | 1 µg/mL (≈ 1.07 µM) | > 256 µg/mL | 8 µg/mL (≈ 8.54 µM) |  |  |  |  |  |  |  |  |  |  |
| CC[C@H]1OC(=O)[C@H](C)[C@@H](OC(=O)NCCCOCCC#Cc2ccc3c(c2)c(=O)c(C(=O)O)cn3C2CC2)[C@H](C)[C@@H](O[C@@H]2O[C@H](C)C[C@H](N(C)C)[C@H]2O)[C@](C)(O)C[C@@H](C)CN(C)[C@H](C)[C@H]2OC(=O)O[C@@]21C [117a] |  |  |  |  |  |  |  | 32 µg/mL (≈ 32.1 µM) | 512 µg/mL (≈ 513 µM) | 512 µg/mL (≈ 513 µM) | 1 µg/mL (≈ 1 µM) | 2 µg/mL (≈ 2.01 µM) | 512 µg/mL (≈ 513 µM) | 32 µg/mL (≈ 32.1 µM) |  |  |  |
| CC[C@H]1OC(=O)[C@H](C)[C@@H](OC(=O)NCCCCCCC#Cc2ccc3c(=O)c(C(=O)O)cn(C4CC4)c3c2)[C@H](C)[C@@H](O[C@@H]2O[C@H](C)C[C@H](N(C)C)[C@H]2O)[C@](C)(O)C[C@@H](C)CN(C)[C@H](C)[C@H]2OC(=O)O[C@@]21C [111c] |  |  |  |  |  |  |  | 8 µg/mL (≈ 8.04 µM) | 2 µg/mL (≈ 2.01 µM) | 0.5 µg/mL (≈ 0.502 µM) | ≤ 0.008 µg/mL | ≤ 0.008 µg/mL | 16 µg/mL (≈ 16.1 µM) | 4 µg/mL (≈ 4.02 µM) |  |  |  |
| CC[C@H]1OC(=O)[C@H](C)[C@@H](OC(=O)NCCNCCC#Cc2ccc3c(=O)c(C(=O)O)cn(C4CC4)c3c2)[C@H](C)[C@@H](O[C@@H]2O[C@H](C)C[C@H](N(C)C)[C@H]2O)[C@](C)(OC)C[C@@H](C)C(=NOC)[C@H](C)[C@H]2OC(=O)O[C@@]21C [74c] |  |  |  |  |  |  |  | 16 µg/mL (≈ 15.8 µM) | 2 µg/mL (≈ 1.98 µM) | 0.5 µg/mL (≈ 0.495 µM) | 0.016 µg/mL (≈ 0.0158 µM) | 0.12 µg/mL (≈ 0.119 µM) | 256 µg/mL (≈ 253 µM) | 8 µg/mL (≈ 7.92 µM) |  |  |  |
| CC[C@H]1OC(=O)[C@H](C)[C@@H](OC(=O)NCCCCCC#Cc2ccc3c(c2)c(=O)c(C(=O)O)cn3C2CC2)[C@H](C)[C@@H](O[C@@H]2O[C@H](C)C[C@H](N(C)C)[C@H]2O)[C@](C)(O)C[C@@H](C)CN(C)[C@H](C)[C@H]2OC(=O)O[C@@]21C [110a] |  |  |  |  |  |  |  | 32 µg/mL (≈ 32.6 µM) | 512 µg/mL (≈ 522 µM) | 256 µg/mL (≈ 261 µM) | 1 µg/mL (≈ 1.02 µM) | 2 µg/mL (≈ 2.04 µM) | 256 µg/mL (≈ 261 µM) | 16 µg/mL (≈ 16.3 µM) |  |  |  |
